The results in this text go back to paper PMC5218480 (PLoS ONE, 2017).

The test concerns MV-4-11 cells. Nature of the test: Gene expression microarray analysis (Affymetrix PrimeView) and GSEA. In kind it is cell-based, human. Details: RFU PODN (11730768_x_at) / Fold change /veh PODN (11730768_x_at) / RFU LINC00158 (11744669_a_at) / Fold change /veh LINC00158 (11744669_a_at) / RFU DUSP10 (11751237_a_at) / Fold change /veh DUSP10 (11751237_a_at) / RFU ID3 (11757404_x_at) / Fold change /veh ID3 (11757404_x_at) / RFU PLEKHG5 (11737974_s_at) / Fold change /veh PLEKHG5 (11737974_s_at) / RFU LRRC4B (11730491_at) / Fold change /veh LRRC4B (11730491_at) / RFU GIMAP4 (11747438_a_at) / Fold change /veh GIMAP4 (11747438_a_at) / RFU KRT8 (11758183_x_at) / Fold change /veh KRT8 (11758183_x_at) / RFU CNN1 (11734310_a_at) / Fold change /veh CNN1 (11734310_a_at) / RFU VPS37D (11726825_at) / Fold change /veh VPS37D (11726825_at) / RFU C10orf10 (11716522_x_at) / Fold change /veh C10orf10 (11716522_x_at) / RFU KIR2DL2 /// KIR2DL4 /// KIR2DL5A /// KIR2DL5B /// KIR2DS1 /// KIR2DS2 /// KIR2DS3 /// KIR2DS4 /// KIR3DL3 /// KIR3DL3 /// KIR3DS1 (11738374_at) / Fold change /veh KIR2DL2 /// KIR2DL4 /// KIR2DL5A /// KIR2DL5B /// KIR2DS1 /// KIR2DS2 /// KIR2DS3 /// KIR2DS4 /// KIR3DL3 /// KIR3DL3 /// KIR3DS1 (11738374_at) / RFU C1QL1 (11718748_at) / Fold change /veh C1QL1 (11718748_at) / RFU TMPRSS4 (11747572_a_at) / Fold change /veh TMPRSS4 (11747572_a_at) / RFU HAMP (11756126_x_at) / Fold change /veh HAMP (11756126_x_at) / RFU RNFT2 (11725882_a_at) / Fold change /veh RNFT2 (11725882_a_at) / RFU NR4A2 (11747474_a_at) / Fold change /veh NR4A2 (11747474_a_at) / RFU ABCC12 (11746883_a_at) / Fold change /veh ABCC12 (11746883_a_at) / RFU TMEM136 (11760407_x_at) / Fold change /veh TMEM136 (11760407_x_at) / RFU CLDN22 /// WWC2 (11732394_at) / Fold change /veh CLDN22 /// WWC2 (11732394_at) / RFU HLA-DPB1 (11760878_x_at) / Fold change /veh HLA-DPB1 (11760878_x_at) / RFU SPINT1 (11716480_a_at) / Fold change /veh SPINT1 (11716480_a_at) / RFU GAP43 (11754022_s_at) / Fold change /veh GAP43 (11754022_s_at) / RFU A4GNT (11735810_at) / Fold change /veh A4GNT (11735810_at) / RFU PRB3 (11715151_x_at) / Fold change /veh PRB3 (11715151_x_at) / RFU TUBB4B (11761932_at) / Fold change /veh TUBB4B (11761932_at) / RFU CAPN14 (11732068_a_at) / Fold change /veh CAPN14 (11732068_a_at) / RFU TMCC2 (11721928_a_at) / Fold change /veh TMCC2 (11721928_a_at) / RFU IRGQ (11745062_a_at) / Fold change /veh IRGQ (11745062_a_at) / RFU FAM174B (11720279_a_at) / Fold change /veh FAM174B (11720279_a_at) / RFU TMPRSS4 (11748680_a_at) / Fold change /veh TMPRSS4 (11748680_a_at) / RFU FAM212B (11763350_a_at) / Fold change /veh FAM212B (11763350_a_at) / RFU PLEKHG5 (11743358_a_at) / Fold change /veh PLEKHG5 (11743358_a_at) / RFU ZSCAN30 (11745921_a_at) / Fold change /veh ZSCAN30 (11745921_a_at) / RFU CMKLR1 (11741424_a_at) / Fold change /veh CMKLR1 (11741424_a_at) / RFU LOC101060620 /// MAPK8IP1 (11723275_at) / Fold change /veh LOC101060620 /// MAPK8IP1 (11723275_at) / RFU SPTSSB (11747773_x_at) / Fold change /veh SPTSSB (11747773_x_at) / RFU PRSS12 (11739890_at) / Fold change /veh PRSS12 (11739890_at) / RFU BIN1 (11741810_x_at) / Fold change /veh BIN1 (11741810_x_at) / RFU WNT11 (11732464_a_at) / Fold change /veh WNT11 (11732464_a_at) / RFU C10orf10 (11716521_a_at) / Fold change /veh C10orf10 (11716521_a_at) / RFU C5orf56 (11738089_at) / Fold change /veh C5orf56 (11738089_at) / RFU CYB561 (11721691_x_at) / Fold change /veh CYB561 (11721691_x_at) / RFU ANKRD19P (11752326_a_at) / Fold change /veh ANKRD19P (11752326_a_at) / RFU OR2T12 /// OR2T33 /// OR2T8 (11738714_s_at) / Fold change /veh OR2T12 /// OR2T33 /// OR2T8 (11738714_s_at) / RFU VCAN (11748164_a_at) / Fold change /veh VCAN (11748164_a_at) / RFU JSRP1 (11732532_at) / Fold change /veh JSRP1 (11732532_at) / RFU KRTAP10-11 (11738290_x_at) / Fold change /veh KRTAP10-11 (11738290_x_at) / RFU MYO3A (11730013_a_at) / Fold change /veh MYO3A (11730013_a_at) / RFU EBF3 (11725865_a_at) / Fold change /veh EBF3 (11725865_a_at) / RFU CAMK2N1 (11719241_x_at) / Fold change /veh CAMK2N1 (11719241_x_at) / RFU C5orf56 (11738088_a_at) / Fold change /veh C5orf56 (11738088_a_at) / RFU OLFML3 (11715873_a_at) / Fold change /veh OLFML3 (11715873_a_at) / RFU LOC100653217 /// NTM (11731650_a_at) / Fold change /veh LOC100653217 /// NTM (11731650_a_at) / RFU MAPK11 (11762145_a_at) / Fold change /veh MAPK11 (11762145_a_at) / RFU FIZ1 (11724087_x_at) / Fold change /veh FIZ1 (11724087_x_at) / RFU OASL (11726364_x_at) / Fold change /veh OASL (11726364_x_at) / RFU SOX15 (11748057_x_at) / Fold change /veh SOX15 (11748057_x_at) / RFU CD79A (11719716_a_at) / Fold change /veh CD79A (11719716_a_at) / RFU HIST1H1D (11736915_at) / Fold change /veh HIST1H1D (11736915_at) / RFU CASKIN2 (11723855_a_at) / Fold change /veh CASKIN2 (11723855_a_at) / RFU LOC730098 (11760151_x_at) / Fold change /veh LOC730098 (11760151_x_at) / RFU OR4N2 (11742367_at) / Fold change /veh OR4N2 (11742367_at) / RFU PRRT2 (11749266_a_at) / Fold change /veh PRRT2 (11749266_a_at) / RFU SNX32 (11753110_a_at) / Fold change /veh SNX32 (11753110_a_at) / RFU CDHR5 (11726645_a_at) / Fold change /veh CDHR5 (11726645_a_at) / RFU RCAN1 (11760418_a_at) / Fold change /veh RCAN1 (11760418_a_at) / RFU FAM167A (11723789_a_at) / Fold change /veh FAM167A (11723789_a_at) / RFU FAM26E (11764081_at) / Fold change /veh FAM26E (11764081_at) / RFU ISYNA1 (11749810_s_at) / Fold change /veh ISYNA1 (11749810_s_at) / RFU ACY1 (11761880_at) / Fold change /veh ACY1 (11761880_at) / RFU 11764098_at / Fold change /veh 11764098_at / RFU SAMD14 (11745864_x_at) / Fold change /veh SAMD14 (11745864_x_at) / RFU NPB (11741838_a_at) / Fold change /veh NPB (11741838_a_at) / RFU TMPRSS6 (11731388_a_at) / Fold change /veh TMPRSS6 (11731388_a_at) / RFU KRTAP10-2 (11738614_at) / Fold change /veh KRTAP10-2 (11738614_at) / RFU ARHGAP8 /// PRR5-ARHGAP8 (11727945_x_at) / Fold change /veh ARHGAP8 /// PRR5-ARHGAP8 (11727945_x_at) / RFU KRTAP5-7 /// NADSYN1 (11734609_at) / Fold change /veh KRTAP5-7 /// NADSYN1 (11734609_at) / RFU RASL12 (11751679_a_at) / Fold change /veh RASL12 (11751679_a_at) / RFU CDKN2B (11736163_a_at) / Fold change /veh CDKN2B (11736163_a_at) / RFU PRF1 (11729649_at) / Fold change /veh PRF1 (11729649_at) / RFU, ZNF638 /// ZNF638-IT1 / Fold change vs veh, ZNF638 /// ZNF638-IT1 / RFU, PANK3 / Fold change vs veh, PANK3 / RFU, SH3YL1 / Fold change vs veh, SH3YL1 / RFU, ZEB2 / Fold change vs veh, ZEB2 / RFU, NRIP1 / Fold change vs veh, NRIP1 / RFU, PTTG1IP / Fold change vs veh, PTTG1IP / RFU, CAPN2 / Fold change vs veh, CAPN2 / RFU, MED14 / Fold change vs veh, MED14 / RFU, SNORA58 / Fold change vs veh, SNORA58 / RFU, C1orf63 / Fold change vs veh, C1orf63 / RFU, LRRFIP1 / Fold change vs veh, LRRFIP1 / RFU, NDUFAF7 / Fold change vs veh, NDUFAF7 / RFU, SLC12A2 / Fold change vs veh, SLC12A2 / RFU, IBTK / Fold change vs veh, IBTK / RFU, ESF1 / Fold change vs veh, ESF1 / Fold change vs veh, TMEM50B / RFU, TAOK1 / Fold change vs veh, TAOK1 / RFU, ACBD3 / Fold change vs veh, ACBD3 / RFU, TMA16 / Fold change vs veh, TMA16 / RFU, RWDD3 / Fold change vs veh, RWDD3 / RFU, BCAT1 / Fold change vs veh, BCAT1 / RFU, EDEM3 / Fold change vs veh, EDEM3 / RFU, TMEM33 / Fold change vs veh, TMEM33 / RFU, WDR75 / Fold change vs veh, WDR75 / RFU, AHCTF1 / Fold change vs veh, AHCTF1 / RFU, TFRC / Fold change vs veh, TFRC / RFU, ZDHHC17 / Fold change vs veh, ZDHHC17 / RFU, NOM1 / Fold change vs veh, NOM1 / RFU, ARL8B / Fold change vs veh, ARL8B / RFU, ZBTB11 / Fold change vs veh, ZBTB11 / RFU, TAMM41 / Fold change vs veh, TAMM41 / RFU, KIAA1704 /// LOC100996395 / Fold change vs veh, KIAA1704 /// LOC100996395 / RFU, ING1 / Fold change vs veh, ING1 / RFU, TRMT61B / Fold change vs veh, TRMT61B / RFU, FUBP3 / Fold change vs veh, FUBP3 / RFU, TP53 / Fold change vs veh, TP53 / RFU, TNKS2 / Fold change vs veh, TNKS2 / RFU, ZFP14 / Fold change vs veh, ZFP14 / RFU, ACTR2 / Fold change vs veh, ACTR2 / RFU, PPP3R1 / Fold change vs veh, PPP3R1 / RFU, PIK3R1 / Fold change vs veh, PIK3R1 / RFU, HNRNPA1 / Fold change vs veh, HNRNPA1 / RFU, RNF170 / Fold change vs veh, RNF170 / RFU, ZNF28 / Fold change vs veh, ZNF28 / RFU, RNGTT / Fold change vs veh, RNGTT / RFU, OGT / Fold change vs veh, OGT / RFU, BRD1 / Fold change vs veh, BRD1 / RFU, MARS / Fold change vs veh, MARS / RFU, ZNF655 / Fold change vs veh, ZNF655 / RFU, FAHD1 / Fold change vs veh, FAHD1 / RFU, BDP1 / Fold change vs veh, BDP1 / RFU, LRRCC1 / Fold change vs veh, LRRCC1 / RFU, ARID1A / Fold change vs veh, ARID1A / RFU, ZNF146 / Fold change vs veh, ZNF146 / RFU, ZNF330 / Fold change vs veh, ZNF330 / RFU, GPN3 / Fold change vs veh, GPN3 / RFU, C9orf123 / Fold change vs veh, C9orf123 / RFU, N4BP2L2 / Fold change vs veh, N4BP2L2 / RFU, ARFIP1 / Fold change vs veh, ARFIP1 / RFU, FAM179B / Fold change vs veh, FAM179B / RFU, BCL10 / Fold change vs veh, BCL10 / RFU, UHRF1BP1L / Fold change vs veh, UHRF1BP1L / RFU, BET1 / Fold change vs veh, BET1 / RFU, CNOT2 / Fold change vs veh, CNOT2 / RFU, ZNF268 / Fold change vs veh, ZNF268 / Fold change vs veh, ZNF507 / RFU, DGCR2 / Fold change vs veh, DGCR2 / RFU, WDSUB1 / Fold change vs veh, WDSUB1 / Fold change vs veh, HSP90B1 /// MIR3652 / RFU, ADSS / Fold change vs veh, ADSS / RFU, GK / Fold change vs veh, GK / RFU, ZNF148 / Fold change vs veh, ZNF148 / RFU, TAF9 / Fold change vs veh, TAF9 / RFU, SLC1A5 / Fold change vs veh, SLC1A5 / RFU, SLMO2 / Fold change vs veh, SLMO2 / RFU, ABCC4 / Fold change vs veh, ABCC4 / RFU, LOC101060439 /// RAP1B / Fold change vs veh, LOC101060439 /// RAP1B / RFU, RFX7 / Fold change vs veh, RFX7 / RFU, GTPBP10 / Fold change vs veh, GTPBP10 / RFU, CNEP1R1 / Fold change vs veh, CNEP1R1 / RFU, BIVM-ERCC5 /// ERCC5 / Fold change vs veh, BIVM-ERCC5 /// ERCC5 / RFU, ILF3 / Fold change vs veh, ILF3 / RFU 11762660_at / Fold change /veh 11762660_at / RFU VCAN (11757783_s_at) / Fold change /veh VCAN (11757783_s_at) / RFU DDX43 (11728927_at) / Fold change /veh DDX43 (11728927_at) / RFU KRT8 (11758188_x_at) / Fold change /veh KRT8 (11758188_x_at) / RFU NKD1 (11759106_at) / Fold change /veh NKD1 (11759106_at) / RFU SRD5A1 (11742802_a_at) / Fold change /veh SRD5A1 (11742802_a_at) / RFU TPSAB1 /// TPSB2 (11721975_s_at) / Fold change /veh TPSAB1 /// TPSB2 (11721975_s_at) / RFU GSTM3 (11746129_a_at) / Fold change /veh GSTM3 (11746129_a_at) / RFU IL23R (11737362_x_at) / Fold change /veh IL23R (11737362_x_at) / RFU TMEM51 (11727254_a_at) / Fold change /veh TMEM51 (11727254_a_at) / RFU PIWIL2 (11732686_x_at) / Fold change /veh PIWIL2 (11732686_x_at) / RFU ORM1 (11744905_x_at) / Fold change /veh ORM1 (11744905_x_at) / RFU CCDC152 (11743942_at) / Fold change /veh CCDC152 (11743942_at) / RFU ECM1 (11717891_a_at) / Fold change /veh ECM1 (11717891_a_at) / RFU IL23R (11748794_a_at) / Fold change /veh IL23R (11748794_a_at) / RFU TNFAIP8L3 (11732012_x_at) / Fold change /veh TNFAIP8L3 (11732012_x_at) / RFU MBOAT4 (11741988_at) / Fold change /veh MBOAT4 (11741988_at) / RFU 11764193_at / Fold change /veh 11764193_at / RFU TMEM53 (11763286_at) / Fold change /veh TMEM53 (11763286_at) / RFU MAGEB2 (11727129_at) / Fold change /veh MAGEB2 (11727129_at) / RFU TMEM200A (11744735_a_at) / Fold change /veh TMEM200A (11744735_a_at) / RFU CCDC152 (11751479_a_at) / Fold change /veh CCDC152 (11751479_a_at) / RFU FAM211A (11726209_a_at) / Fold change /veh FAM211A (11726209_a_at) / RFU RGS16 (11746705_a_at) / Fold change /veh RGS16 (11746705_a_at) / RFU VCAN (11755009_s_at) / Fold change /veh VCAN (11755009_s_at) / RFU RHOB (11743442_s_at) / Fold change /veh RHOB (11743442_s_at) / RFU RGS16 (11720943_a_at) / Fold change /veh RGS16 (11720943_a_at) / RFU RGS16 (11720944_at) / Fold change /veh RGS16 (11720944_at) / RFU, VPS4B / Fold change vs veh, VPS4B / RFU, CREB1 / Fold change vs veh, CREB1 / RFU, DNAJC13 / Fold change vs veh, DNAJC13 / RFU, GNAQ / Fold change vs veh, GNAQ / RFU, CDK5R1 / Fold change vs veh, CDK5R1 / RFU, ZRANB3 / Fold change vs veh, ZRANB3 / RFU, CUL4A / Fold change vs veh, CUL4A / RFU, CCNY / Fold change vs veh, CCNY / RFU, UFL1 / Fold change vs veh, UFL1 / RFU, COG3 / Fold change vs veh, COG3 / RFU, DIAPH2 / Fold change vs veh, DIAPH2 / RFU, SKA2 / Fold change vs veh, SKA2 / RFU, AFF3 / Fold change vs veh, AFF3 / RFU, LMF1 / Fold change vs veh, LMF1 / RFU, IPO11 / Fold change vs veh, IPO11 / RFU, DFFB / Fold change vs veh, DFFB / RFU, FOXP1 / Fold change vs veh, FOXP1 / RFU, CARD8 / Fold change vs veh, CARD8 / RFU, STRN3 / Fold change vs veh, STRN3 / RFU, ADK / Fold change vs veh, ADK / RFU, RASSF2 / Fold change vs veh, RASSF2 / RFU, WIPF1 / Fold change vs veh, WIPF1 / RFU, LARP1B / Fold change vs veh, LARP1B / RFU, RASA1 / Fold change vs veh, RASA1 / RFU, RB1 / Fold change vs veh, RB1 / RFU, PPFIA1 / Fold change vs veh, PPFIA1 / RFU, MAT2A / Fold change vs veh, MAT2A / RFU, CCT5 / Fold change vs veh, CCT5 / RFU, WDR92 / Fold change vs veh, WDR92 / RFU, CUX1 / Fold change vs veh, CUX1 / RFU, TTC7A / Fold change vs veh, TTC7A / RFU, TMEM135 / Fold change vs veh, TMEM135 / RFU, DEPTOR / Fold change vs veh, DEPTOR / RFU, CPM / Fold change vs veh, CPM / RFU, DNAJB6 / Fold change vs veh, DNAJB6 / RFU, CACNA2D3 / Fold change vs veh, CACNA2D3 / RFU, DTX4 / Fold change vs veh, DTX4 / RFU, TFCP2 / Fold change vs veh, TFCP2 / RFU, GMCL1 /// GMCL1P1 / Fold change vs veh, GMCL1 /// GMCL1P1 / RFU, AEBP2 / Fold change vs veh, AEBP2 / RFU, SNHG1 /// SNORD22 /// SNORD25 /// SNORD26 /// SNORD27 /// SNORD28 /// SNORD29 /// SNORD31 / Fold change vs veh, SNHG1 /// SNORD22 /// SNORD25 /// SNORD26 /// SNORD27 /// SNORD28 /// SNORD29 /// SNORD31 / Fold change (Aza/veh), C12orf56 (ProbeSet 11735607_a_at) / Fold change (ACY-1035/veh), C12orf56 (ProbeSet 11735607_a_at) / Fold change (Aza/veh), FGFR1OP (ProbeSet 11751329_s_at) / Fold change (ACY-1035/veh), FGFR1OP (ProbeSet 11751329_s_at) / Fold change (Aza/veh), VPS36 (ProbeSet 11739960_a_at) / Fold change (ACY-1035/veh), VPS36 (ProbeSet 11739960_a_at) / RFU SYPL1 (11715823_x_at) / Fold change /veh SYPL1 (11715823_x_at) / RFU IGFBP7 (11715501_s_at) / Fold change /veh IGFBP7 (11715501_s_at) / RFU REEP3 (11722064_at) / Fold change /veh REEP3 (11722064_at) / RFU IGLL1 (11728026_x_at) / Fold change /veh IGLL1 (11728026_x_at): dose or concentration left out as unconfirmed. As to conditions: ProbeSet 11763895_x_at; LIST B.

SMILES strings stand for the structures.

Regarding `Nc1ncn([C@@H]2O[C@H](CO)[C@@H](O)[C@H]2O)c(=O)n1` [azacitidine], the “Fold change vs veh, SNORA58” value turned out to be 1.03.
